# Patent publication US9314468B2, “Chemokine receptor modulators” (Altiris Therapeutics, Inc., priority 2008, dated 2016)
# Target: T1, CXCR4 (Homo sapiens (Human), UniProt P61073)
# Experiment: Functional calcium mobilization assay (SDF-1α induced)
# Format: cell-based
# Conditions: CEM cells, SDF-1α challenge at EC80-EC90; read-out: Ca Flux IC50
# Method: Functional modulation of CXCR4 was determined by calcium mobilization assay using leukemic lymphoid CEM cells, which naturally express high levels of CXCR4. Generally, the assay is carried out as follows: Cells are grown in vitro to confluency. On the day of the assay, cells are removed from the incubator, culture medium removed and replaced with a calcium sensitive dye (Calcium3 assay kit; Molecular Devices, Sunnyvale, Calif.). The cells are allowed to dye load for 45-60 min at 37° C. in the cell culture incubator and then allowed to equilibrate to room temperature for no more than 15 min before assay.
# Compound plates were generated containing up to 3% dimethyl sulfoxide in media kept at room temperature. Test compounds were added to the cells at a 1:3 dilution, and calcium mobilization was measured using a Flex Station fluorescence imager (Molecular Devices). This first read was used to determine direct agonist activation of the CXCR4 receptor by the test compounds. […] Full dose response curves were generated daily for SDF-1a to calculate IC50 concentrations. The IC50 values are reported. In cases, where one was not determined, a percent inhibition at the 1 μM concentration was extrapolated.
# Functional calcium mobilization assay was conducted as described in Example 27.
# T1 sequence (P61073 whole entry): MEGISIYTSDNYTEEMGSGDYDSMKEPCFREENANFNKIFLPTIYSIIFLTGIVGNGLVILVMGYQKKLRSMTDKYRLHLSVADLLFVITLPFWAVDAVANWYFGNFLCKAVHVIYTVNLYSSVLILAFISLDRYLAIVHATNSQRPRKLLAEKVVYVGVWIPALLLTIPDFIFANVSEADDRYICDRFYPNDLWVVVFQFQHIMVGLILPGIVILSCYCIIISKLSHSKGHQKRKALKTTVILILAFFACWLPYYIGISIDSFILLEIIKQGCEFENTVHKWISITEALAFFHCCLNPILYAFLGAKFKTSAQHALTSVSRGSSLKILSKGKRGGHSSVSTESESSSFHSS
row,SMILES,IC50 [nM]
1,Cn1c(CN(CCCCN)C2CCCc3cccnc32)nnc1-c1ccccc1 (stereo not shown),3200
2,c1cnc2c(c1)CCCC2N(CCCCNC1=NCCN1)Cc1nccc2c1[nH]c1ccccc12 (stereo not shown),1670
3,NCCCCN(Cc1nccc2c1[nH]c1cc(F)ccc12)C1CCCc2cccnc21 (stereo not shown),565
4,c1cnc2c(c1)CCCC2N(CCCCNCC1CC1)Cc1nccc2c1[nH]c1ccccc12 (stereo not shown),729
5,CCNCCCCN(Cc1nccc2c1[nH]c1ccccc12)C1CCCc2cccnc21 (stereo not shown),168
6,CN(C)C(=O)NCCCCN(Cc1nccc2c1[nH]c1ccccc12)C1CCCc2cccnc21 (stereo not shown),38
7,CC(=O)NCCCCN(Cc1nccc2c1[nH]c1ccccc12)C1CCCc2cccnc21 (stereo not shown),1720
8,CS(=O)(=O)N1CCN(CCN(Cc2nccc3c2[nH]c2ccccc23)C2CCCc3cccnc32)CC1 (stereo not shown),10000
9,NCCCCN(Cc1cc2c(cn1)[nH]c1ccccc12)C1CCCc2cccnc21 (stereo not shown),69
10,Cn1c2ccccc2c2ccnc(CN(CCCCN)C3CCCc4cccnc43)c21 (stereo not shown),10
11,c1cnc2c(c1)CCCC2N(CCCN1CCNCC1)Cc1nccc2c1[nH]c1ccccc12 (stereo not shown),18
12,CC(C)(C)C(=O)N1CCN(CCCN(Cc2nccc3c2[nH]c2ccccc23)C2CCCc3cccnc32)CC1 (stereo not shown),1930
13,c1cnc2c(c1)CCCC2N(CCCCN1CCNCC1)Cc1nccc2c1[nH]c1ccccc12 (stereo not shown),1960
14,Cn1c2ccccc2c2ccnc(CN(CCCCN)[C@H]3CCCc4cccnc43)c21,22
15,CCNCCCCN(Cc1nccc2c1[nH]c1ccccc12)[C@H]1CCCc2cccnc21,699
16,c1cnc2c(c1)CCC[C@@H]2N(CCCCNCC1CC1)Cc1nccc2c1[nH]c1ccccc12,451
17,c1cnc2c(c1)CCC[C@@H]2N(CCCN1CCNCC1)Cc1nccc2c1[nH]c1ccccc12,87
18,NCCCCN(Cc1nccc2c1[nH]c1ccccc12)[C@H]1CCCc2cccnc21,30
19,NCCCCN(Cc1nccc2c1[nH]c1ccccc12)[C@@H]1CCCc2cccnc21,1340
20,NCCCCN(Cc1cc2c(cn1)[nH]c1ccccc12)[C@@H]1CCCc2cccnc21,1180
21,NCCCCN(Cc1cc2c(cn1)[nH]c1ccccc12)[C@H]1CCCc2cccnc21,100
22,CC(C)(C)OC(=O)Cn1c2ccccc2c2ccnc(CN[C@H]3CCCc4cccnc43)c21,2810
23,CC(C)(C)OC(=O)Cn1c2ccccc2c2ccnc(CN(CCCCN)[C@H]3CCCc4cccnc43)c21,1

row,SMILES,IC50 [nM]
1,c1cnc2c(c1)CCC[C@@H]2N(Cc1nccc2c1[nH]c1ccccc12)CC1CCCNC1 (stereo partly shown),3600
2,c1ccc(Cn2c3ccccc3c3ccnc(CN(CCCN4CCNCC4)[C@H]4CCCc5cccnc54)c32)nc1,176
3,NCCCCN(Cc1nccc2c3ccccc3n(CC(=O)NC3CCOCC3)c12)[C@H]1CCCc2cccnc21,21
4,O=C(Cn1c2ccccc2c2ccnc(CN(CCCCNCc3ccccn3)[C@H]3CCCc4cccnc43)c21)N1CCOCC1,8650
5,CN1CCN(CCCN(Cc2nccc3c4ccccc4n(CC(=O)N4CCOCC4)c23)[C@H]2CCCc3cccnc32)CC1,628
6,O=C(Cn1c2ccccc2c2ccnc(CN(CCCCNCc3cccnc3)[C@H]3CCCc4cccnc43)c21)N1CCOCC1,1400
7,O=C(Cn1c2ccccc2c2ccnc(CN(CCCCNCc3ccncc3)[C@H]3CCCc4cccnc43)c21)N1CCOCC1,2830
8,NCCCCN(Cc1nccc2c3ccccc3n(CCC3CCOCC3)c12)[C@H]1CCCc2cccnc21,13
9,NCCCCN(Cc1nccc2c3ccccc3n(CCCN3CCNC(=O)C3)c12)[C@H]1CCCc2cccnc21,4
10,NCCCCN(Cc1nccc2c3ccccc3n(CC(=O)N3CCSCC3)c12)[C@H]1CCCc2cccnc21,78
11,NCCCCN(Cc1nccc2c3ccccc3n(Cc3ccccc3)c12)[C@H]1CCCc2cccnc21,47
12,O=C1CN(CCCN(Cc2nccc3c4ccccc4n(CC(=O)N4CCOCC4)c23)[C@H]2CCCc3cccnc32)CCN1,8720
13,O=C(Cn1c2ccccc2c2ccnc(CN(CCCN3CCNCC3)[C@H]3CCCc4cccnc43)c21)NC1CCOCC1,26
14,NCCCCN(Cc1nccc2c3ccccc3n(CC(=O)N3CCCCC3)c12)[C@H]1CCCc2cccnc21,270
15,O=C(Cn1c2ccccc2c2ccnc(CN(CCCN3CCNCC3)[C@H]3CCCc4cccnc43)c21)N1CCCCC1,405
16,c1ccc(Cn2c3ccccc3c3ccnc(CN(CCCN4CCNCC4)[C@H]4CCCc5cccnc54)c32)cc1,152
17,O=C1CN(CCCN(Cc2nccc3c4ccccc4n(CCCN4C(=O)c5ccccc5C4=O)c23)[C@H]2CCCc3cccnc32)CCN1,138
18,O=C(Cn1c2ccccc2c2ccnc(CN(CCCC3CCNCC3)[C@H]3CCCc4cccnc43)c21)N1CCOCC1,124
19,Cc1cccnc1CN(CCCCN)Cc1nccc2c3ccccc3n(CC(=O)N3CCOCC3)c12,583
20,O=C1c2ccccc2C(=O)N1CCCn1c2ccccc2c2ccnc(CN(CCCN3CCNCC3)[C@H]3CCCc4cccnc43)c21,44
21,NCCCn1c2ccccc2c2ccnc(CN(CCCN3CCNC(=O)C3)[C@H]3CCCc4cccnc43)c21,30
22,N[C@H]1CC[C@H](CN(Cc2nccc3c4ccccc4n(CC(=O)N4CCOCC4)c23)[C@H]2CCCc3cccnc32)CC1,2150
23,N[C@H]1CC[C@@H](CN(Cc2nccc3c4ccccc4n(CC(=O)N4CCOCC4)c23)[C@H]2CCCc3cccnc32)CC1,1260

row,SMILES,IC50 [nM]
1,NCCCCN(Cc1nccc2c3ccccc3n(CCCN3CCNCC3=O)c12)[C@H]1CCCc2cccnc21,20
2,O=C1CNCCN1CCCn1c2ccccc2c2ccnc(CN(CCCN3CCNCC3)[C@H]3CCCc4cccnc43)c21,44
3,NC(=O)Cn1c2ccccc2c2ccnc(CN(CCCN3CCNCC3)[C@H]3CCCc4cccnc43)c21,9
4,NCCCn1c2ccccc2c2ccnc(CN(CCCN3CCNCC3)[C@H]3CCCc4cccnc43)c21,5
5,COCCn1c2ccccc2c2ccnc(CN(CCCCN)[C@H]3CCCc4cccnc43)c21,20
6,NCCCCN(Cc1nccc2c3ccccc3n(CC3CC3)c12)[C@H]1CCCc2cccnc21,4
7,c1cnc2c(c1)CCC[C@@H]2N(CCCN1CCNCC1)Cc1nccc2c3ccccc3n(CC3CC3)c12,14
8,COCCn1c2ccccc2c2ccnc(CN(CCCN3CCNCC3)[C@H]3CCCc4cccnc43)c21,49
9,c1cnc2c(c1)CCC[C@@H]2N(CCCN1CCNCC1)Cc1nccc2c3ccccc3n(CCC3CCOCC3)c12,1
10,CC(c1ccccn1)N(CCCCN)Cc1nccc2c3ccccc3n(CC(=O)N3CCOCC3)c12 (stereo not shown),423
11,NCCCCN(Cc1nccc2c1[nH]c1ccccc12)C1CCCc2cccnc21 (stereo not shown) [drawing 654],142
12,NCCCCN(Cc1nccc2c3ccccc3n(CC(=O)N3CCOCC3)c12)[C@H]1CCCc2cccnc21 [drawing 701],79
13,NCCCCN(Cc1nccc2c3ccccc3n(CC(=O)O)c12)[C@H]1CCCc2cccnc21 [drawing 709],22
14,NCCCCN(Cc1nccc2c3ccccc3n(CCCN3CCNCC3)c12)[C@H]1CCCc2cccnc21 [drawing 723],15
15,CN1CCN(C(=O)Cn2c3ccccc3c3ccnc(CN(CCCCN)[C@H]4CCCc5cccnc54)c32)CC1 [drawing 725],30
16,CC(C)(C)OC(=O)Cn1c2ccccc2c2ccnc(CN(CCCN3CCNCC3)[C@H]3CCCc4cccnc43)c21 [drawing 743],59
17,C[C@@H]1CN(C(=O)Cn2c3ccccc3c3ccnc(CN(CCCCN)[C@H]4CCCc5cccnc54)c32)C[C@H](C)O1 [drawing 744],123
18,NCCCCN(Cc1nccc2c3ccccc3n(CCCN)c12)[C@H]1CCCc2cccnc21 [drawing 748],21
19,O=C(O)Cn1c2ccccc2c2ccnc(CN(CCCN3CCNCC3)[C@H]3CCCc4cccnc43)c21 [drawing 753],135
20,NCCCCN(Cc1nccc2c3ccccc3n(CCN3CCNCC3)c12)[C@H]1CCCc2cccnc21 [drawing 754],63
21,NCCCCN(Cc1nccc2c3ccccc3n(CC(N)=O)c12)[C@H]1CCCc2cccnc21 [drawing 765],17

# Target: T1, CXCR4
# Experiment: Cellular impedance change induced by SDF-1a (cellular dielectric spectroscopy)
# Format: cell-based
# Conditions: HeLa cells, endogenous CXCR4, EC50 concentration of SDF-1a, 30 minutes; read-out: Antagonist IC50
# Method: This assay measures the change in impedance that occurs when cells are stimulated with SDF-1a. Changes in shape and cytoskeleton result in a change of impedance that is dependent on the activation of the CXCR4 receptor. This assay is contracted to MDS Pharma Services and performed as described in http://discovery.mdsps.com/Catalog/Services/Screening/CellKey/AssayDetails.aspx?id=7 (Assay 930070). Briefly, human HeLa cells expressing endogenous CXCR4 are grown in vitro and receptor activation in live cells is measured using cellular dielectric spectroscopy (CDS).
row,SMILES,IC50 [nM]
1,NCCCCN(Cc1nccc2c3ccccc3n(CC(N)=O)c12)C1CCCc2cccnc21 (stereo not shown),5.8
2,NCCCCN(Cc1nccc2c3ccccc3n(CCCN)c12)C1CCCc2cccnc21 (stereo not shown),7.3
3,NCCCCN(Cc1nccc2c3ccccc3n(CCN3CCOCC3)c12)C1CCCc2cccnc21 (stereo not shown),7.7
4,NCCCCN(Cc1nccc2c3ccccc3n(CCCN3CCNCC3)c12)C1CCCc2cccnc21 (stereo not shown),8.3
5,C[C@@H]1CN(C(=O)Cn2c3ccccc3c3ccnc(CN(CCCCN)C4CCCc5cccnc54)c32)C[C@H](C)O1 (stereo partly shown),9.9
6,CN1CCN(C(=O)Cn2c3ccccc3c3ccnc(CN(CCCCN)C4CCCc5cccnc54)c32)CC1 (stereo not shown),11
7,NCCCCN(Cc1nccc2c3ccccc3n(CC(=O)N3CCC(O)CC3)c12)C1CCCc2cccnc21 (stereo not shown),12
8,O=C(Cn1c2ccccc2c2ccnc(CN(CCCN3CCNCC3)C3CCCc4cccnc43)c21)N1CCOCC1 (stereo not shown),15
9,O=C(O)Cn1c2ccccc2c2ccnc(CN(CCCN3CCNCC3)C3CCCc4cccnc43)c21 (stereo not shown),26
